In US8951734B2, “Prion-like form of CPEB and related compositions and methods” (priority 2003, dated 2015):
*1 amine or outer side, *2 acyl side, *3 side chain or, on linkers, in order; H or OH if unused. Where a SMILES comes first, the peptide text is derived from it. Bridges are numbered along the chain shown (N, C = ends). Roman numbers before positions name the chains, in order. [ ]: non-standard residue; d: D form. Actinocin(9to1) = Cc1c2oc3c(C)ccc(C(=O)[*:1])c3nc-2c(C(=O)[*:2])c(N)c1=O; NMeV = CN[C@H](C(=O)O)C(C)C; Sar = CNCC(=O)O

Legend:
ApCPEB [1] = test: ApCPEB protein induction in isolated pleural ganglia / sensory cell clusters stimulated with 5-HT, with or without pharmacological agents (Western blot); format: cell-based, Aplysia; details: for effect on 5-HT induction of ApCPEB: pretreatment
Protocol: (§1) Aplysia weighing 80-100 grams were used for serotonin (5-HT) stimulation. For whole animal stimulation, the animals were stimulated for 1-1.5 hr at 17° C. with 100 uM of freshly prepared serotonin (Sigma) and then moved to sea water at 17° C. At designated times the pleural ganglia were dissected out. The dissection was carried out in ice cold seawater and frozen in a dry ice-ethanol bath. To apply different pharmacological agents, the pleural ganglia were dissected out and rested for 3-4 hrs at 17° C. before initiation of the treatment. The pleural ganglia were stimulated with 10 uM serotonin instead of 100 uM.
(§2) For western blotting pleural ganglia were homogenized in a buffer containing 600 mM KCl, 10 mM HEPES (7.4), 3 mM MgCl2, 1 mM DTT, and 0.2% NP-40; rotated at 4° C. for 20 min, centrifuged at 14,000×g for 10 min and the supernatant was collected. Approximately 10 ug of total protein was separated on a 10% SDS-PAGE gel and transferred to PVDF membrane. The membranes were blotted with affinity purified CPEB 533 (1:4000), rabbit affinity purified Aplysia Ubiquitin hydrolase (1:1500), rabbit anti-synaptophysin (Zymed) (1:3000), mouse anti-human Hsp70 (1:4000) (BD Biosciences) or monoclonal anti-tubulin (1:3000) (Sigma) followed by incubation with 1:10,000 dilution of HRP coupled anti-rabbit or anti-mouse secondary antibody (Cell signaling) and visualized by chemiluminescence (Pierce chemical). For peptide competition the CPEB77 antibody was preincubated with the peptide (1:20 w/w) at 4° C. for 30 min.

ApCPEB [2] = test: ApCPEB immunostaining in isolated sensory neurites (cell bodies severed); format: cell-based, Aplysia
Protocol: (§3) Following stimulation with serotonin, the cells were washed with filtered seawater and then fixed with freshly prepared 4% paraformaldehyde (PFA) in phosphate-buffered saline (PBS) plus 30% sucrose at 37° C. for 20 min. After fixation, cells were washed three times with PBS and incubated with 0.5% saponin (for isolated neurites) or 0.1% Triton X-100 (for one pulse of serotonin in the neurites) in PBS for 10 min at room temperature (RT). Subsequently cells were washed with PBS three times and excess PFA was quenched by incubating the cells in 50 mM NH4Cl in PBS for 15 min at RT. The fixed cells were blocked with a mixture of heat-inactivated 10% horse serum and 1% goat serum in PBS for 2 hr at RT, then in 1:30 dilution of affinity purified CPEB77 (for isolated neurites) or 1:100 dilution of 463 (for one pulse of serotonin in the synapse) overnight at 4° C. Next day cells were washed three times (20 min each wash) with PBS at RT before incubating with goat anti-rabbit secondary antibody conjugated with Alexa Fluor 488 (1:1000) (Molecular Probes) for 2 hr at room temperature. After three 15 min rinses with PBS cells were mounted on Fluoromount and pictures were taken at Zeiss Axiovert S-100 at 40× magnification using the program Metamorph.

ApCPEB [3] = test: ApCPEB protein in pleural ganglia after whole-animal serotonin exposure (Western blot); format: in vivo, Aplysia
Protocol: as §1, §2

ApCPEB mRNA = test: Semi-quantitative RT-PCR of ApCPEB mRNA in sensory cells of pleural ganglia; format: cell-based, Aplysia
N-actin mRNA = test: Poly-A tail length (PAT) assay of N-actin mRNA after whole-animal serotonin stimulation; format: in vivo, Aplysia
Protocol: The polyA test (PAT) to measure the length of the polyA tail of CPEB mRNA was essentially done as described by Salles and Strickland (1999). Total RNA from the plural ganglia was digested with DNase1 and phenol: chloroform extracted. 3 ug of total RNA was reverse transcribed with 200 ng of AdT primer (5′-[…]-3′) (SEQ ID NO:23) using AMV reverse transcriptase. 2 ul of the cDNA was amplified with Taq polymerase using AdT and N-actin primer 5′-[…]-3′ (SEQ ID NO:17) in the PCR cycle: 94° C. 30 sec, 60° C. 1 min and 72° C. 1 min, 5 sec/cycle for 30 cycles. To check the amount of sensorin, Bmp1 and N-actin, the following primer pairs were used; sensorin-5′-AACAGAAACAGTC-TTTCCCCC-3′ (SEQ ID NO:24) and 5′-TCTTGACTCACCAACTGCC-3′ (SEQ ID NO:25), Bmp1-5′-ATCTATCGCCTATT-ATTATCACCA-3′ (SEQ ID NO:26) and 5′-[…]-3′ (SEQ ID NO:27), N-actin 5′-CCCATCCAT-TGTCCACA-3′ (SEQ ID NO:28) and 5′-TTTGAGCATTCTGGCTTC-3′(SEQ ID NO:29).

ApCPEB [4] = test: ApCPEB immunostaining in bifurcated sensory-motor culture, one branch stimulated with a single pulse of 5-HT; format: cell-based, Aplysia; details: 10 uM 5-HT for 50 seconds to one branch; fixed after one hour; n=10
Protocol: as §3, with “Metamorph. […]” for “Metamorph.”

[5] = tested on: sensory-motor neuron synapses; details: cited from earlier work
[6] = whole animal serotonin exposure then seawater

Question: For `CC[C@H](C)[C@@H]1NC(=O)CNC(=O)[C@@H]2Cc3c([nH]c4cc(O)ccc34)[S+]([O-])C[C@@H](NC(=O)CNC1=O)C(=O)N[C@@H](CC(N)=O)C(=O)N1C[C@H](O)C[C@H]1C(=O)N[C@@H]([C@@H](C)[C@@H](O)CO)C(=O)N2` (stereo in doubt) [α-amanitin], which “effect on 5-HT induction of ApCPEB” value (ApCPEB [1]; 50 ug/ml) is on record?
Answer: Its value is “did not block”.

Question: For `CCCCCCOC(=O)[C@]1(O)C[C@@H]2O[C@@]1(C)n1c3ccccc3c3c4c(c5c6ccccc6n2c5c31)C(=O)NC4` [KT5720], which “effect on serotonin induced increase in ApCPEB” value (ApCPEB [1]; PKA inhibitor pretreatment of sensory clusters, 30 min) is on record?
Answer: Its value is “did not block”.

Question: Which “level of ApCPEB” value (ApCPEB [1]; activation of PKA by cell permeable cAMP analog, data not shown) does the source give for `Nc1ncnc2c1ncn2[C@@H]1O[C@@H]2COP(O)(=S)O[C@H]2[C@H]1O` (stereo partly drawn) [SpcAMP] here?
Answer: The value was “did not change”.

Question: With `Cc1c2oc3c(C)ccc(C(=O)N[C@@H]4C(=O)N[C@H](C(C)C)C(=O)N5CCC[C@H]5C(=O)N(C)CC(=O)N(C)[C@@H](C(C)C)C(=O)O[C@@H]4C)c3nc-2c(C(=O)N[C@@H]2C(=O)N[C@H](C(C)C)C(=O)N3CCC[C@H]3C(=O)N(C)CC(=O)N(C)[C@@H](C(C)C)C(=O)O[C@@H]2C)c(N)c1=O` [actinomycin D] (I: T[dV]P[Sar][NMeV] / II: T[dV]P[Sar][NMeV]; ester I:1-I:C, II:1-II:C; linker I:N-II:N via Actinocin(9to1)) as the compound, how does the “effect on 5-HT induction of ApCPEB” value (ApCPEB [1]; 10 ug/ml) read?
Answer: The value was “did not block”.

Question: With `COc1ccc2c(c[n+](C)c3c4cc5c(cc4ccc23)OCO5)c1OC` [chelerythrine] as the compound, how does the “effect on serotonin dependent increase of ApCPEB protein” value (ApCPEB [1]; PKC inhibitor, 10 uM) read?
Answer: Its value is “did not affect”.

Question: Which “effect on 5-HT induction of ApCPEB protein” value (ApCPEB [1]; 40 uM) does the source give for `C[C@@H]1C[C@@H]([C@H](O)CC2CC(=O)NC(=O)C2)C(=O)[C@@H](C)C1` [cycloheximide] here?
Answer: Its value is “reduced”.

Question: With `CC[C@H]1CN2CCc3cc(OC)c(OC)cc3[C@@H]2C[C@@H]1C[C@H]1NCCc2cc(OC)c(OC)cc21` [emetine] as the compound, how does the “effect on 5-HT induction of ApCPEB protein” value (ApCPEB [1]; 100 uM) read?
Answer: Its value is “reduced”.

Question: With `CO[C@H]1C[C@@H]2CC[C@@H](C)[C@@](O)(O2)C(=O)C(=O)N2CCCC[C@H]2C(=O)O[C@H]([C@H](C)C[C@@H]2CC[C@@H](O)[C@H](OC)C2)CC(=O)[C@H](C)/C=C(\C)[C@@H](O)[C@@H](OC)C(=O)[C@H](C)C[C@H](C)/C=C/C=C/C=C/1C` [rapamycin] as the compound, how does the “average fluorescence intensity (ApCPEB immunoreactivity)” value (ApCPEB [2]; neurites stimulated with 5-HT in presence of 20 nM rapamycin, n=9) read?
Answer: The value was 0.77±0.1.

Question: Which results are given for `NCCc1c[nH]c2ccc(O)cc12` [serotonin]?
Answer: increase of total content of ApCPEB (ApCPEB [3]; whole animal exposed to serotonin for one hour, thirty minutes after initiation of treatment, pleural ganglia extract): 4 to 5 fold; persistence of increased level of ApCPEB (ApCPEB [3]; [6]): about 3 hours; return of ApCPEB to basal levels (ApCPEB [3]; [6]): returned to basal levels after five hours; average fold induction of ApCPEB (ApCPEB [1]; 5-HT for an hour, western blots scanned and quantified with NIH image, controls of inhibitor sets (FIG. 5d)): 3.3±0.4; increase of total CPEB content (ApCPEB [1]; isolated pleural ganglia, 10 uM 5-HT): 3-4 fold; increase in total ApCPEB protein content (ApCPEB [1]; sensory cell clusters, 10 uM 5-HT for 10 min, then seawater 50 min): 4-5 fold; amount of ApCPEB mRNA, treated versus untreated (ApCPEB mRNA): no significant difference; duration of increased poly(A) tail of N-actin (N-actin mRNA; whole-animal stimulation): at least 4 hours; increase of poly(A) tail of N-actin (N-actin mRNA; within an hour after initiation of treatment): 200-400 nucleotides; average fluorescence intensity (ApCPEB immunoreactivity) in treated branch (ApCPEB [4]): 53.3±8.7; average fluorescence intensity (ApCPEB immunoreactivity) in stimulated neurites (ApCPEB [2]; 10 uM 5-HT bath application 1 hr, n=8): 9.37±0.73; duration of long-term facilitation (LTF) ([5]; five pulses (Martin et al. 1997)): three or more days; duration of synapse-specific short-term facilitation ([5]; single pulse to one of two sets of synapses (Martin et al. 1997)): lasts for minutes
